Assays:
[1] = biological target: T1, Matrilysin (Homo sapiens, UniProt P09237); experiment: Inhibition of matrilysin, Matrix metalloprotease-7
T1 sequence (P09237 whole entry): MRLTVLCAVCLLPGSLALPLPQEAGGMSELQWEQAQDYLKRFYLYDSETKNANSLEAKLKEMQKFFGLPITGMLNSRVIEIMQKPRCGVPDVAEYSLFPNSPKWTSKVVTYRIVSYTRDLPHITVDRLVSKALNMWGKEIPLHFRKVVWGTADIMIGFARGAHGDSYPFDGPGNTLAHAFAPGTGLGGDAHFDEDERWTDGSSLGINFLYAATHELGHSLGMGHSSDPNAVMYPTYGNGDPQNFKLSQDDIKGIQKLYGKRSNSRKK

[2] = biological target: 72 kDa type IV collagenase (Homo sapiens, UniProt P08253); experiment: Inhibition of Gelatinase A, matrix metalloprotease-2
72 kDa type IV collagenase, sequence (P08253 whole entry): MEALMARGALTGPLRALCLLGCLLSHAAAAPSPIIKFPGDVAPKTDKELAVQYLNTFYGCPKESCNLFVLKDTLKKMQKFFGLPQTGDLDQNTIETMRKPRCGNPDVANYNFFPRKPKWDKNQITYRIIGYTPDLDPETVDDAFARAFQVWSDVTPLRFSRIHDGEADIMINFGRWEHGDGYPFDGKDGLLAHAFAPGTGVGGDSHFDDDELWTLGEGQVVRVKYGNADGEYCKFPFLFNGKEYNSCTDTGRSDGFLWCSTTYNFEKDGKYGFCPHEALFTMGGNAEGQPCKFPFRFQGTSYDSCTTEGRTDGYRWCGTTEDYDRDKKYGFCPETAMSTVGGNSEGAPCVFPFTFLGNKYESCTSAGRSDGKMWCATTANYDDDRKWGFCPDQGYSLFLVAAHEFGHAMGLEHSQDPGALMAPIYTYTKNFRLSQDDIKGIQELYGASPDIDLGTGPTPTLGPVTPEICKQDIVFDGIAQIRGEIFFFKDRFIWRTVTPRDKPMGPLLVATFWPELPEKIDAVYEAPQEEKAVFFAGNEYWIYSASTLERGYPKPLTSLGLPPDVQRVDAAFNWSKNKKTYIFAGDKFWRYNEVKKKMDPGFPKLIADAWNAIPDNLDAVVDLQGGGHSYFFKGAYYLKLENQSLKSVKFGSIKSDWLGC

[3] = biological target: Stromelysin-1 (Homo sapiens, UniProt P08254); experiment: Inhibition of Stromelysin, matrix metalloprotease-3
Stromelysin-1, sequence (P08254 whole entry): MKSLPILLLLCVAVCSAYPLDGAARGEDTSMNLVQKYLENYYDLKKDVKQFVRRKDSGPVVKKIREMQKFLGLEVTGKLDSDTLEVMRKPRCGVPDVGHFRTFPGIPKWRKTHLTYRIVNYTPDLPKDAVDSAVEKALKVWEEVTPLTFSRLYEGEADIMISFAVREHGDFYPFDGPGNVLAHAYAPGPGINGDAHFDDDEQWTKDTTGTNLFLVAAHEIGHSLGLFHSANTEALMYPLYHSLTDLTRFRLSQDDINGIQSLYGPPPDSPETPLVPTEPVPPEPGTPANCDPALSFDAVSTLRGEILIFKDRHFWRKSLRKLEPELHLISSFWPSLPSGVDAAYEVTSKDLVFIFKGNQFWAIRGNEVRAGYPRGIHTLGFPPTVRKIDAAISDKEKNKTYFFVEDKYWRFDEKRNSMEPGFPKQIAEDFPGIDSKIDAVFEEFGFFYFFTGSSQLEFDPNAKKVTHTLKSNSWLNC

[4] = biological target: T2, Interstitial collagenase (Homo sapiens, UniProt P03956); experiment: Inhibition of Matrix metalloprotease-1
T2 sequence (P03956 whole entry): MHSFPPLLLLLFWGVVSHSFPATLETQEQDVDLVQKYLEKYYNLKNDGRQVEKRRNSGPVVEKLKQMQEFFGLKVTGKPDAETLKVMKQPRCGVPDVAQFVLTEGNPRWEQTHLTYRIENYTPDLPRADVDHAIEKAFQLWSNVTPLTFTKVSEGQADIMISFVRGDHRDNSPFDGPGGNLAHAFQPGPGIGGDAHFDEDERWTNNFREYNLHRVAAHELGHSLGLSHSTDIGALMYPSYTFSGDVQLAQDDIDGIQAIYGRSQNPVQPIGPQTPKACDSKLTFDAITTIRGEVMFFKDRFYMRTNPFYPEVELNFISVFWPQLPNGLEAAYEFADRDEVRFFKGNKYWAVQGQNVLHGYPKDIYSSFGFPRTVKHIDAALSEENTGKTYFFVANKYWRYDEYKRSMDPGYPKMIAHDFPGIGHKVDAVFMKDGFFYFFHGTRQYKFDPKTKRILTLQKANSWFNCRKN

[5] = biological target: Matrix metalloproteinase-9 (Homo sapiens, UniProt P14780); experiment: Inhibition of Gelatinase B, matrix metalloprotease-9
Matrix metalloproteinase-9, sequence (P14780 whole entry): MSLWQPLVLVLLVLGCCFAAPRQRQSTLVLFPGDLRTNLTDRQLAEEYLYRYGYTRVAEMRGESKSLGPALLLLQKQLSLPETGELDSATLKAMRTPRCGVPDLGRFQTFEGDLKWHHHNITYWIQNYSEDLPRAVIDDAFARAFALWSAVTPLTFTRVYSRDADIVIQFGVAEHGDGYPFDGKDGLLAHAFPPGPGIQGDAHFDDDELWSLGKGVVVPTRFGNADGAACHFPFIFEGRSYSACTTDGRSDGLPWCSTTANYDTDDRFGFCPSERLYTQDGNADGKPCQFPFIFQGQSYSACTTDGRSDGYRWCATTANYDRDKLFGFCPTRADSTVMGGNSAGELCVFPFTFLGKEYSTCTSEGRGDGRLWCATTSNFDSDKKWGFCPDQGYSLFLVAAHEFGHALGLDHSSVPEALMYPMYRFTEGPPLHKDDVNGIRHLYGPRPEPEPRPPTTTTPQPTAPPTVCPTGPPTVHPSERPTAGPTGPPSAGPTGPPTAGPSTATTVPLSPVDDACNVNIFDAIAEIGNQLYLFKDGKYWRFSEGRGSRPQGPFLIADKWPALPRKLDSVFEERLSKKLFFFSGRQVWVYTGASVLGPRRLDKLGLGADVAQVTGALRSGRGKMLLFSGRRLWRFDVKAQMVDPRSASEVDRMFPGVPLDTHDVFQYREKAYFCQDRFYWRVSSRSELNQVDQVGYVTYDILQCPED

[6] = biological target: Neutrophil collagenase (Homo sapiens, UniProt P22894); experiment: Inhibition of human neutrophil collagenase-I, Matrix metalloprotease-8
Neutrophil collagenase, sequence (P22894 whole entry): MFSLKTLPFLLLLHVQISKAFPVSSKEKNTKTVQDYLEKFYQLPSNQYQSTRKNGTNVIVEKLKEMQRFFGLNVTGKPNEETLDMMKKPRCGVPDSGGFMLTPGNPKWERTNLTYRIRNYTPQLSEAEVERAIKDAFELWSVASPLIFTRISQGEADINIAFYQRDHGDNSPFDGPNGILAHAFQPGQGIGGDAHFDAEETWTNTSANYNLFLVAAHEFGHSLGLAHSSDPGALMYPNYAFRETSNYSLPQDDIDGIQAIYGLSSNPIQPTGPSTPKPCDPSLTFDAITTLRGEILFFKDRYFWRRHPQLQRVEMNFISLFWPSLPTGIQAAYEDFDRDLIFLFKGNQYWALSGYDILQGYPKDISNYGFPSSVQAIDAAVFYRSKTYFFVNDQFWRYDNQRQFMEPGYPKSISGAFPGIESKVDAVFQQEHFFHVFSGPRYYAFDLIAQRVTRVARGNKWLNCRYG

SMILES | IC50 [1] | IC50 [2] | IC50 [3] | IC50 [4] | IC50 [5] | IC50 [6]
CCCCCCC1(c2ccccc2)C(=O)NC(=O)NC1=O | > 50000 nM | 1300 nM | 30000 nM | > 2000 nM | 330 nM | –
O=C1NC(=O)C(CCO)(c2ccc(Oc3ccccc3)cc2)C(=O)N1 | > 50000 nM | – | – | > 2000 nM | – | –
CCCCCCC1(c2ccc(-c3ccccc3)cc2)C(=O)NC(=O)NC1=O | > 50000 nM | 868 nM | – | > 2000 nM | 863 nM | –
CC1(c2ccc(Oc3ccccc3)cc2)C(=O)NC(=O)NC1=O | > 50000 nM | 81 nM | 2000 nM | > 2000 nM | – | 81 nM
O=C1NC(=O)C(c2ccc(Oc3ccccc3)cc2)C(=O)N1 | > 50000 nM | 9000 nM | – | > 2000 nM | 14000 nM | –
CCCCCCC1(c2ccc(Oc3ccccc3)cc2)C(=O)NC(=O)NC1=O | > 50000 nM | 21 nM | 2000 nM | > 2000 nM | 18 nM | 130 nM
CCCCCCC1(c2ccc(-c3ccccc3)cc2)C(=O)NC(=S)NC1=O | > 50000 nM | 13000 nM | – | > 2000 nM | 12000 nM | –
CCCCCCCCOc1ccc(CC2(C)C(=O)NC(=O)NC2=O)cc1 | > 50000 nM | 530 nM | 1000 nM | > 2000 nM | 164 nM | –
O=C1NC(=O)C(COCc2ccccc2)(c2ccc(Oc3ccccc3)cc2)C(=O)N1 | > 50000 nM | 19 nM | 930 nM | > 2000 nM | 17 nM | –
CC1(c2ccccc2)C(=O)NC(=O)NC1=O | > 50000 nM | 50000 nM | – | > 2000 nM | 11000 nM | –
CN1C(=O)NC(=O)C(C)(c2ccc(Oc3ccccc3)cc2)C1=O (stereo not drawn) | > 50000 nM | > 50000 nM | – | > 2000 nM | > 50000 nM | –
CCC1(c2ccc(-c3ccccc3)cc2)C(=O)NC(=O)NC1=O | > 50000 nM | 898 nM | 9000 nM | > 2000 nM | 696 nM | –
